How the values were obtained:
[1] = intrinsic clearance, human; assay type: in vitro ADME
Description: (§1) Compound 76 was in several in vitro assays to investigate both metabolism and pharmacokinetics. These assays were performed according to known methods as generally described in the following references: Conde-Ceide et al. ACS Med. Chem. Lett. 2015, 6, 716-720; Morris et al. J. Med. Chem. 2014, 57, 10192-10197; and Bubser et al. ACS Chem. Neurosci. 2014, 5, 920-942.

[2] = intrinsic clearance, dog; assay type: in vitro ADME
Description: as §1

[3] = tested on: amphetamine-induced hyperlocomotion; test: amphetamine-induced hyperlocomotion in rats; assay type: in vivo, male Sprague-Dawley rats; conditions: for percent reversal of amphetamine-induced hyperlocomotion: rat, 1 mg/kg amphetamine s.c.
Description: d-Amphetamine hemisulfate was obtained from Sigma (St. Louis, Mo.). Salt-correction was used to determine the correct amount of the d-amphetamine hemisulfate form in milligrams to add to sterile water in order to yield a […] solution, which would be dosed at 1 mL/kg body weight of each animal. […] The solutions were formulated so that animals were injected with a volume equal to 10 mL/kg body weight for all compounds. The appropriate amount according to the dosage was mixed in 10% Tween 80 (Sigma) in sterile water. The mixtures were then vortexed and stored in a 39° C. sonication bath for 1 hour, until in a microsuspension (except for the highest dose, which was a suspension).
Male Sprague-Dawley rats weighing 239-300 grams and averaging 265 g (Harlan, Inc., Indianapolis, Ind.) were used. They were housed in the animal care facility certified by the American Association for the Accreditation of Laboratory Animal Care (AALAC) under a 12-hour light/dark cycle (lights on: 6 a.m.; lights off: 6 p.m.) and had free access to food and water. The animals used in this experiment were food-deprived the evening before experimentation for oral dosing of compound/vehicle. The experimental protocols performed during the light cycle were approved by the Institutional Animals Care and Use Committee of Vanderbilt University and conformed to the guidelines established by the National Research Council Guide for the Care and Use of Laboratory Animals.
Male Harlan Sprague Dawley rats were habituated in Smart Open Field locomotor activity test chambers (Hamilton-Kinder, San Diego, Calif.) with 16×16 photo beams to automatically record locomotor activity. […] They were monitored for an additional 30 minutes and then injected subcutaneously with vehicle or 1 mg/kg amphetamine. Animals were then monitored for an additional 60 minutes, for a total of 120 minutes. Data were expressed as changes in ambulation defined as total number of beam breaks per 5 minute interval. Terminal brain and plasma samples were collected at the end of the study for pharmacokinetic analysis.
Behavioral data were analyzed using a two-way ANOVA with main effects of treatment and time. Post hoc analysis was performed using a Dunnett's t-test with all treatment groups compared to the VAMP group using GraphPad Prism V.5.04 (GraphPad Software, San Diego, Calif.). Data were graphed using GraphPad Prism V.5.04 (GraphPad Software, San Diego, Calif.). A probability of p<0.05 was taken as the level of statistical significance. In addition, the total number of beam breaks from the amphetamine administration (65 min) to the end of the study (120 min) was calculated and graphed. Percent Reversal was calculated as follows using Microsoft Excel: In each animal, total ambulation from t=65 to t=120 was summed. The mean of each sum was calculated in the VAMP group. Then, for each animal, Percent Reversal was calculated with the following formula: Percent Reversal=100−{[(total ambulation in each animal from t=65 to t=120)/(mean of each sum from t=65 to t=120 in VAMP group)]*100}. The mean Percent Reversal, as well as the standard error, was calculated for each dose group using GraphPad Prism V5.04.

[4] = in vivo DMPK, dog; conditions: 3 mg/kg
[5] = MDCK-MDR1 permeability and efflux; assay type: in vitro ADME; conditions: dog, MDCK-MDR1
Description: as §1

[6] = tested on: MDCK-MDR1; test: MDCK-MDR1 permeability and efflux; assay type: in vitro ADME; conditions: efflux ratio
Description: as §1

[7] = in vivo DMPK, cyno
[8] = target: P450 2C9 (Homo sapiens, UniProt P11712); test: P450 2C9 inhibition; assay type: in vitro ADME
Chain of P450 2C9 (P11712 whole entry): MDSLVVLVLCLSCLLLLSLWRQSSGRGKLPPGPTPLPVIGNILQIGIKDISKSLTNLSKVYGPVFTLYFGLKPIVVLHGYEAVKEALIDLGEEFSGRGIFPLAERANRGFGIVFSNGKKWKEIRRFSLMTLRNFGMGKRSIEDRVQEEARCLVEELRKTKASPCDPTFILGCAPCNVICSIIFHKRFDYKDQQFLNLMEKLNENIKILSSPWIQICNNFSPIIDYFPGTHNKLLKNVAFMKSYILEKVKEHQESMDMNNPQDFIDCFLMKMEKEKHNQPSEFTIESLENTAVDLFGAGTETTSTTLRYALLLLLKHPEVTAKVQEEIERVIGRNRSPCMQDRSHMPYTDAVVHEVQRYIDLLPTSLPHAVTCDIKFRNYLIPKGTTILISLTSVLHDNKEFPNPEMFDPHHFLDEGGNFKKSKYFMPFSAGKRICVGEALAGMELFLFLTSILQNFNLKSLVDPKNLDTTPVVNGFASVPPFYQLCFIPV
Description: as §1

[9] = target: cynomolgus monkey M4 (Macaca fascicularis, UniProt G7PQB4); test: mAChR M4 cell-based functional assay (calcium flux), cyno M4; conditions: CHO-K1 cells
Chain of cynomolgus monkey M4 (G7PQB4 1-479): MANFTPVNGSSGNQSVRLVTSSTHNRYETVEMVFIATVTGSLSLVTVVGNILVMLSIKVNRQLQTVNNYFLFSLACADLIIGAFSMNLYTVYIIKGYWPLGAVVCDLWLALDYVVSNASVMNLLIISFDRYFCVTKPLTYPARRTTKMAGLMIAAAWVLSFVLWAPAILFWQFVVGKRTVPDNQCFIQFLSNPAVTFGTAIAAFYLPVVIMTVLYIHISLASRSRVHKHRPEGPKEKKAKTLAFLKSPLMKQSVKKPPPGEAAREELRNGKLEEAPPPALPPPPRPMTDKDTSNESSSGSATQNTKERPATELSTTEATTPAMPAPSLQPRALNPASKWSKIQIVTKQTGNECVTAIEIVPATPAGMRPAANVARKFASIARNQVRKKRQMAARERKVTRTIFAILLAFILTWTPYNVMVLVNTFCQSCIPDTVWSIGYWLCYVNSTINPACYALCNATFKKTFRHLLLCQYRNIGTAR

[10] = target: P450 3A4 (Homo sapiens, UniProt P08684); test: P450 3A4 inhibition; assay type: in vitro ADME
Chain of P450 3A4 (P08684 whole entry): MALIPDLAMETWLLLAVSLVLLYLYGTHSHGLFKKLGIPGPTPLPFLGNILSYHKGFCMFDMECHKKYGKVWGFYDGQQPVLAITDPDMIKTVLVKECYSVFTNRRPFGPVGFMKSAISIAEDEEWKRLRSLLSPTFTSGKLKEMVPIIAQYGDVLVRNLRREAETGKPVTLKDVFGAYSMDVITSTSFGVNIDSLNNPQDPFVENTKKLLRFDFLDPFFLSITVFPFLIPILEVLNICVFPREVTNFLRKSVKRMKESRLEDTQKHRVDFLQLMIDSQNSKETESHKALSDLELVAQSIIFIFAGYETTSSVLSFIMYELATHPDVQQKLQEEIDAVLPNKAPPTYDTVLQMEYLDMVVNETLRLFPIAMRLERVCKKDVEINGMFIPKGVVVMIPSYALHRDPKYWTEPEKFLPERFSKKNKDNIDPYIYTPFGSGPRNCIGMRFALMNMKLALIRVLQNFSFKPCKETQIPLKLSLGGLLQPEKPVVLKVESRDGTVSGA
Description: as §1

[11] = target: P450 2D6 (Homo sapiens, UniProt P10635); test: P450 2D6 inhibition; assay type: in vitro ADME
Chain of P450 2D6 (P10635 whole entry): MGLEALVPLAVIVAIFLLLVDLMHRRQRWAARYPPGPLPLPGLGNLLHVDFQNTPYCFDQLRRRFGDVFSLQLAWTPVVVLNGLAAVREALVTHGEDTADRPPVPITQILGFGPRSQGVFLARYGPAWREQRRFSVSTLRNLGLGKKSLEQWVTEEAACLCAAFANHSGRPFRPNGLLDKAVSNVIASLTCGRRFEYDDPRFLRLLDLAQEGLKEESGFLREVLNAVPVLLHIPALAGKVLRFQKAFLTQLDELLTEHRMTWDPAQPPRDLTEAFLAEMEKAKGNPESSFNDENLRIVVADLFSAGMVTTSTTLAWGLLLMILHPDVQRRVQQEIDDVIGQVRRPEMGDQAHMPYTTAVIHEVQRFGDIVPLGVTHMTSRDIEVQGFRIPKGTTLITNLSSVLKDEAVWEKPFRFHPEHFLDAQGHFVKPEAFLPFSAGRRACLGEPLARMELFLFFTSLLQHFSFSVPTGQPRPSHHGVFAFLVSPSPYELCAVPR
Description: as §1

[12] = intrinsic clearance, cyno; assay type: in vitro ADME; conditions: cynomolgus monkey
Description: as §1

[13] = target: T1, human mAChR M4 (Homo sapiens, UniProt P08173); test: mAChR M4 cell-based functional assay (calcium flux), human M4; conditions: Human M4; % ACh maximum at 30 μM
T1 sequence (P08173 1-479): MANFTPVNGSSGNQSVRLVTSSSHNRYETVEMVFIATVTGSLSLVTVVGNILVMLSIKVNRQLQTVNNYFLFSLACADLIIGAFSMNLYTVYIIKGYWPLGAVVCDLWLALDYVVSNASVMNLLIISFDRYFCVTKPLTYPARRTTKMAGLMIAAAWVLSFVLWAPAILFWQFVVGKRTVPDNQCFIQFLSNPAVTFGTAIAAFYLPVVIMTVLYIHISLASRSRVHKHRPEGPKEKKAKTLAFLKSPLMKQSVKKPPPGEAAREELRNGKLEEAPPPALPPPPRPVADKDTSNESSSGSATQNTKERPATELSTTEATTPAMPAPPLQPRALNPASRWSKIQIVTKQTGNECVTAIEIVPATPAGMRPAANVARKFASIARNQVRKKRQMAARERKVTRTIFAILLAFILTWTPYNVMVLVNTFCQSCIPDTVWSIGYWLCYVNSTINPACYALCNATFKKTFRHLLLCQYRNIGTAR

[14] = in vivo; conditions: dog, plasma
[15] = tested on: 68 primary molecular targets; test: Eurofins LeadProfilingScreen (binding); conditions: 10 μM (binding); all targets except human adenosine A2a

## Cc1nnc2sc3c(NCc4ccc(C(C)(C)O)cc4)ncnc3c2c1C [Compound 76, 2-[4-[[(3,4-Dimethylpyrimido[4′,5′:4,5]thieno[2,3-c]pyridazin-8-yl)amino]methyl]phenyl]propan-2-ol]
[1]
  CLint scaled: 15 mL/min/kg
[2]
  CLint scaled: 35 mL/min/kg
[3]; 0.1 mg/kg p.o.
  percent reversal of amphetamine-induced hyperlocomotion: 8.1%
[3]; 0.3 mg/kg p.o.
  percent reversal of amphetamine-induced hyperlocomotion: 32.8%
[3]; 1 mg/kg p.o.
  percent reversal of amphetamine-induced hyperlocomotion: 50.7%
[3]; 3 mg/kg p.o.
  percent reversal of amphetamine-induced hyperlocomotion: 44.3%
[3]; 10 mg/kg p.o.
  percent reversal of amphetamine-induced hyperlocomotion: 62.8%
[3]; […] p.o.
  percent reversal of amphetamine-induced hyperlocomotion: 25.6%
[3]; systemic administration, similar extent as VU0467154 at 10 mg/kg p.o.
  reversal of amphetamine-induced hyperlocomotion (in words): significant and sustained reversal
[4]
  Dog oral F: 54%
[5]
  Papp A→B: 20 ×10⁻⁶ cm/s
[6]
  MDCK-MDR1 ER: 3.1 (Papp A→B:
[7]; 3 mg/kg
  Cyno oral F: 44%
[7]; cynomolgus monkey, in vivo
  Cyno CSF: plasma Kp: 0.01
  Cyno CSF: plasma Kp, u: 1.1
[8]
  IC50: 16 µM
[9]
  EC50: 0.12 µM
[10]
  IC50: 24 µM
[11]
  IC50: > 30 µM
[12]
  CLint scaled: 102 mL/min/kg
[13]
  Emax: 86%
[14]
  Vd: 1.4 L/kg
  clearance: 4.7 mL/min/kg
  half-life: 4.2 h
[15]
  inhibition of each target in the LeadProfilingScreen: < 50%

— US10239887B2, “Positive allosteric modulators of the muscarinic acetylcholine receptor M4” (Vanderbilt University, priority 2016, dated 2019)
